Source: ChEMBL document CHEMBL4665826, “Design, synthesis and biological evaluation of novel heptamethine cyanine dye-erlotinib conjugates as antitumor agents” (Bioorg Med Chem Lett, 2020)

What was measured:
A549 [1] = test: Antiproliferative activity against human A549 cells assessed as reduction in cell growth by MTT assay; format: functional, cell-based
NCI-H460 = test: Antiproliferative activity against human NCI-H460 cells assessed as reduction in cell growth by MTT assay; format: functional, cell-based
MDA-MB-231 = test: Antiproliferative activity against human MDA-MB-231 cells assessed as reduction in cell growth by MTT assay; format: functional, cell-based
NCI-H1299 = test: Antiproliferative activity against human NCI-H1299 cells assessed as reduction in cell growth by MTT assay; format: functional, cell-based
MCF-10A = test: Cytotoxicity against human MCF-10A cells assessed as reduction in cell growth by MTT assay; format: cell-based
[2] = target: T1, Epidermal growth factor receptor (Homo sapiens, UniProt P00533); test: Inhibition of EGFR in human A549 cells measured after 30 hrs by ELISA; format: cell-based
[3] = target: T1, Epidermal growth factor receptor; test: Potency index, ratio of erlotinib IC50 to test compound IC50 for EGFR in human A549 cells measured after 30 hrs by ELISA; format: cell-based
A549 [4] = test: Potency index, ratio of erlotinib IC50 to test compound IC50 for antiproliferative activity against human A549 cells assessed as reduction in cell growth by MTT assay; format: functional

T1 sequence (P00533 whole entry): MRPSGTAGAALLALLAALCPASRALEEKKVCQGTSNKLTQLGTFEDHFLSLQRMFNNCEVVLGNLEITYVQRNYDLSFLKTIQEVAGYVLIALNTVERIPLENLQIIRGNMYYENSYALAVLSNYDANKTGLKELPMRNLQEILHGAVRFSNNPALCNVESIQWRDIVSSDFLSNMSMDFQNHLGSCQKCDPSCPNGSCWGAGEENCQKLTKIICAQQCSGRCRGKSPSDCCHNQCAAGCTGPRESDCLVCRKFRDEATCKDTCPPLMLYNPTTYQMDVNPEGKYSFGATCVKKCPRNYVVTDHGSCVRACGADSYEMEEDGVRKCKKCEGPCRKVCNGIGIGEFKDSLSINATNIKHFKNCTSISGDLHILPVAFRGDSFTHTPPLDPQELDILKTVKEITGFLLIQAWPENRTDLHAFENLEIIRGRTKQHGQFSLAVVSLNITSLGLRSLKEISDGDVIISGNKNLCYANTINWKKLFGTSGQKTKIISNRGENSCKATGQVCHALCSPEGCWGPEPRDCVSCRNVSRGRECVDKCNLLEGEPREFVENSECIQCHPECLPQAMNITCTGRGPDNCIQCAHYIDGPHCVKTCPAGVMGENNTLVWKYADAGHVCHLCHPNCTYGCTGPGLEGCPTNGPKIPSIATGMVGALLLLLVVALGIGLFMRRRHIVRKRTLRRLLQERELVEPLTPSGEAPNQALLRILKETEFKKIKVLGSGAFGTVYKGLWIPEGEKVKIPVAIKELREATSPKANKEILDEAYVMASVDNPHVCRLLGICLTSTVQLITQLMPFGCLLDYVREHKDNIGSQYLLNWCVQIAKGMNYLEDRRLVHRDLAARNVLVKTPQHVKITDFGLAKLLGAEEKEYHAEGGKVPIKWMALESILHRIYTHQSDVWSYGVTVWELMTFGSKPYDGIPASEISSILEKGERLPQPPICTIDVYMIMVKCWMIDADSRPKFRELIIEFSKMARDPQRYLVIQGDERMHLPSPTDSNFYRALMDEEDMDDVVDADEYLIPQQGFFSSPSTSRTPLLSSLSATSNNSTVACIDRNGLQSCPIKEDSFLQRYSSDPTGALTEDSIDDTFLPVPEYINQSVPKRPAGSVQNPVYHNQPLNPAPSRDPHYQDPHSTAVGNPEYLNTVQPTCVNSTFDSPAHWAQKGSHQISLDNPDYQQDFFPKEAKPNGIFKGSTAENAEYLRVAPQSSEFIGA

Row | Structure (SMILES) | IC50 (A549 [1]) [nM] | IC50 (NCI-H460) [nM] | IC50 (MDA-MB-231) [nM] | IC50 (NCI-H1299) [nM] | IC50 (MCF-10A) [nM] | IC50 [2] [nM] | Ratio IC50 [3] | Ratio IC50 (A549 [4])
1 | C#Cc1cccc(Nc2ncnc3cc(OCCOC)c(OCCOC(=O)CCCCC[N+]4=C(/C=C/C5=C(Cl)C(=C/C=C6/N(CCCCCC(=O)O)c7ccccc7C6(C)C)/CCC5)C(C)(C)c5ccccc54)cc23)c1 | 9040 | 15200 | 4310 | 6960 |  |  |  | 
2 | C#Cc1cccc(Nc2ncnc3cc(OCCOC)c(OCCOC(=O)CCCCC[N+]4=C(/C=C/C5=C(Cl)C(=C/C=C6/N(CCCCCC(=O)O)c7ccc(Br)cc7C6(C)C)/CCC5)C(C)(C)c5cc(Br)ccc54)cc23)c1 | 7330 | 13700 | 609 | 17600 |  |  |  | 
3 | C#Cc1cccc(Nc2ncnc3cc(OCCOC)c(OCCOC(=O)CCCCC[N+]4=C(/C=C/C=C/C=C/C=C5/N(CCCC)c6ccccc6C5(C)C)C(C)(C)c5ccccc54)cc23)c1 | 631 | 570 | < 125 | 2000 | 33200 |  |  | 
4 | C#Cc1cccc(Nc2ncnc3cc(OCCOC)c(OCCOC(=O)CCCCC[N+]4=C(/C=C/C=C/C=C/C=C5/N(CCCCCC(=O)O)c6ccc(C)cc6C5(C)C)C(C)(C)c5cc(C)ccc54)cc23)c1 | 2100 | 5650 | 6210 | 4150 |  |  |  | 
5 | C#Cc1cccc(Nc2ncnc3cc(OCCOC)c(OCCOC(=O)CCCCC[N+]4=C(/C=C/C=C/C=C/C=C5/N(CCCC)c6ccc(OC)cc6C5(C)C)C(C)(C)c5ccccc54)cc23)c1 | 388 | 549 | 306 | 378 |  |  |  | 
6 | C#Cc1cccc(Nc2ncnc3cc(OCCOC)c(OCCOC(=O)CCCCC[N+]4=C(/C=C/C=C/C=C/C=C5/N(CCCC)c6ccc(OC)cc6C5(C)C)C(C)(C)c5cc(Br)ccc54)cc23)c1 | 2080 | 855 | 833 | 246 |  |  |  | 
7 | C#Cc1cccc(Nc2ncnc3cc(OCCOC)c(OCCOC(=O)CCCCC[N+]4=C(/C=C/C5=C(Cl)C(=C/C=C6/N(CCCCCC(=O)O)c7ccc(C)cc7C6(C)C)/CCC5)C(C)(C)c5cc(C)ccc54)cc23)c1 | 2380 | 816 | 3360 | 1550 |  |  |  | 
8 | CC(=O)O[C@H]1C(=O)[C@@]2(C)[C@H]([C@H](OC(=O)c3ccccc3)[C@]3(O)C[C@H](OC(=O)[C@H](O)[C@@H](NC(=O)c4ccccc4)c4ccccc4)C(C)=C1C3(C)C)[C@]1(OC(C)=O)CO[C@@H]1C[C@@H]2O [PACLITAXEL] | < 1 | < 1 | < 25 | 5 |  |  |  | 
9 | C#Cc1cccc(Nc2ncnc3cc(OCCOC)c(OCCOC(=O)CCCCC[N+]4=C(/C=C/C=C/C=C/C=C5/N(CCCC)c6ccc(OC)cc6C5(C)C)C(C)(C)c5cc(OC)ccc54)cc23)c1 | 455 | 217 | < 125 | 110 |  |  |  | 
10 | C#Cc1cccc(Nc2ncnc3cc(OCCOC)c(OCCOC(=O)CCCCC[N+]4=C(/C=C/C=C/C=C/C=C5/N(CCCC)c6ccccc6C5(C)C)C(C)(C)c5cc(Br)ccc54)cc23)c1 | 579 | 655 | < 125 | 693 |  |  |  | 
11 | C#Cc1cccc(Nc2ncnc3cc(OCCOC)c(OCCOC(=O)CCCCC[N+]4=C(/C=C/C=C/C=C/C=C5/N(CCCC)c6ccccc6C5(C)C)C(C)(C)c5cc(OC)ccc54)cc23)c1 | 3940 | 2470 | < 125 | 680 |  |  |  | 
12 | C#Cc1cccc(Nc2ncnc3cc(OCCOC)c(OCCOC(=O)CCCCC[N+]4=C(/C=C/C=C/C=C/C=C5/N(CCCC)c6ccc(OC)cc6C5(C)C)C(C)(C)c5cc(C)ccc54)cc23)c1 | 678 | 827 | 531 | 1350 |  |  |  | 
13 | C#Cc1cccc(Nc2ncnc3cc(OCCOC)c(OCCOC(=O)CCCCC[N+]4=C(/C=C/C=C/C=C/C=C5/N(CCCCCC(=O)O)c6ccccc6C5(C)C)C(C)(C)c5ccccc54)cc23)c1 | 1130 | 7250 | 1620 | 5140 |  |  |  | 
14 | C#Cc1cccc(Nc2ncnc3cc(OCCOC)c(OCCOC(=O)CCCCC[N+]4=C(/C=C/C=C/C=C/C=C5/N(CCCC)c6ccccc6C5(C)C)C(C)(C)c5cc(C)ccc54)cc23)c1 | 2070 | 2120 | 313 | 1740 |  |  |  | 
15 | C#Cc1cccc(Nc2ncnc3cc(OCCOC)c(OCCOC(=O)CCCCC[N+]4=C(/C=C/C=C/C=C/C=C5/N(CCCC)c6ccc(OC)cc6C5(C)C)C(C)(C)c5cc(C(F)(F)F)ccc54)cc23)c1.[Br-] | 177 | 301 | 311 | 79 | 38600 | 124 | 14 | 14
16 | C#Cc1cccc(Nc2ncnc3cc(OCCOC)c(OCCOC(=O)CCCCC[N+]4=C(/C=C/C=C/C=C/C=C5/N(CCCC)c6ccccc6C5(C)C)C(C)(C)c5cc(C(F)(F)F)ccc54)cc23)c1 | 230 | 813 | 356 | 541 |  | 205 |  | 
17 | C#Cc1cccc(Nc2ncnc3cc(OCCOC)c(OCCOC(=O)CCCCC[N+]4=C(/C=C/C5=C(Cl)C(=C/C=C6/N(CCCCCC(=O)O)c7ccc(OC)cc7C6(C)C)/CCC5)C(C)(C)c5cc(OC)ccc54)cc23)c1 | 1960 | 2700 | 4230 | 2210 |  |  |  | 
18 | C#Cc1cccc(Nc2ncnc3cc(OCCOC)c(OCCOC(=O)CCCCC[N+]4=C(/C=C/C=C/C=C/C=C5/N(CCCCCC(=O)O)c6ccc(OC)cc6C5(C)C)C(C)(C)c5cc(OC)ccc54)cc23)c1 | 2590 | 5120 | 3300 | 14900 |  |  |  | 
